IC50 data for 1 compound are collected here from US6743802B2, “Alkyne-aryl phosphodiesterase-4 inhibitors” (Merck Frosst Canada & Co., priority 2001, dated 2004).

As usually defined, the IC50 is the concentration needed to halve the response being measured.

This experiment concerns TNF-α and LTB4. Description: LPS and FMLP-induced TNF-α and LTB4 assays in human whole blood. In kind it is cell-based. The settings on record: LPS 1 μg/mL 24 h, then LPS and fMLP 1 μM challenge, marker (TNF-α or LTB4) not specified. The method, then:
Whole blood provides a protein and cell-rich milieu appropriate for the study of biochemical efficacy of anti-inflammatory compounds such as PDE4-selective inhibitors. […] Upon stimulation with LPS, activated monocytes express and secrete TNF-α up to 8 hours and plasma levels remain stable for 24 hours. Published studies have shown that inhibition of TNF-α by increasing intracellular cAMP via PDE4 inhibition and/or enhanced adenylyl cyclase activity occurs at the transcriptional level. […] As there is little LTB4 produced during a 24 hour LPS stimulation of whole blood, an additional LPS stimulation followed by fMLP challenge of human whole blood is necessary for LTB4 synthesis by activated neutrophils. Thus, by using the same blood sample, it is possible to evaluate the potency of a compound on two surrogate markers of PDE4 activity in the whole blood by the following procedure.
Fresh blood was collected in heparinized tubes by venipuncture from healthy human volunteers (male and female). These subjects had no apparent inflammatory conditions and had not taken any NSAIDs for at least 4 days prior to blood collection. 500 μL aliquots of blood were pre-incubated with either 2 μL of vehicle (DMSO) or 2 μL of test compound at varying concentrations for 15 minutes at 37° C. […]

As to `CC(C)NC(=O)c1cn(-c2cccc(C#Cc3cccc(C(C)(C)O)n3)c2)c2ncccc2c1=O` [Example 28, N-Isopropyl-1-{3-[6-(1-hydroxy-1-methylethyl)-2-pyridinylethynyl]phenyl}-1,4-dihydro [1,8]naphthyridin-4-one-3-carboxamide], the IC50 is 10 to 2400 nM.
